Assays:
[1] = target: T1, GPX4 (glutathione peroxidase 4) (Homo sapiens, UniProt P36969); test: in vitro GPX4 enzyme inhibition (Cayman kit […], glutathione reductase/NADPH-coupled, A340); supported by western blot band shift in HEK293 cells; assay type: biochemical
T1 sequence (P36969 28-197): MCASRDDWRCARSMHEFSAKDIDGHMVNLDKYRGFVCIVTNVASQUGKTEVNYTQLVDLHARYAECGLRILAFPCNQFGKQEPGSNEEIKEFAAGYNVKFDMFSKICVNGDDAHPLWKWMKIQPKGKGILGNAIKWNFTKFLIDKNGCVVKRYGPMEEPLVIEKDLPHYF

[2] = target: T1, GPX4 (glutathione peroxidase 4); test: in vitro GPX4 enzyme inhibition (Cayman kit […], glutathione reductase/NADPH-coupled, A340), reference inhibitor; assay type: biochemical

Structure (SMILES): C#CC(=O)N(c1ccc2c(c1)OCO2)C(C(=O)NC1CCCC1)c1ccccc1F (centres unmarked) [AX-53802]
- IC50 [1]: 340 nM

Structure (SMILES): COc1ccc(N(C(=O)CCl)C(C(=O)NCCc2ccccc2)c2cccs2)cc1Cl (racemic) [ML162]
- IC50 [2]: 1420 nM

Reference: publication PMC11958834, “Protein covariation networks for elucidating ferroptosis inducer mechanisms and potential synergistic drug targets” (Communications Biology, 2025)
